The text below walks through data of article PMC4184702 (Pharmacology Research & Perspectives, 2014).

One data set deals with α4β2* nAChR. Particulars: Figure 1, cited from earlier work.
In the next data set the target is α7* nAChR. The note with it: Figure 1, cited from earlier work.
The next data set addresses α3β4* nAChR. More on the design: method as in Mineur et al. ([2009]). Particulars: Figure 1; ref Mineur et al. ([2009]); cited from earlier work.
The test system of the next data set is LS and HS α4β2-nAChR. Also on record: method as in Mineur et al. [2009]. The note with it: relative to that of ACh; ref Mineur et al. [2009]; cited from earlier work.
The test system of a further data set is C57BL/6J mice. The note with it: ref Mineur et al. [2009], cited from earlier work; for latency to eat in NSF: 14 days repeat treatment, C57BL/6J mice, [2011].
A further data set relates to Male C57 BL6 mice. The experiment in a line: SmartCube test. The format is in vivo, mouse. The note with it: for SmartCube behavioral signature: both tested doses, 15 min preinjection. How it is done: Male C57 BL6 mice (Taconic Farms) were used in the SmartCube® assay (PsychoGenics Inc., Tarrytown, NY). Mice were received at 7 weeks old and group-housed in OptiMICE ventilated cages with four mice/cage. Mice were acclimated to the colony room for at least 1 week prior to the first injections. All animals were tested in SmartCube® at 8 10 weeks old.
To acquire initial in vivo evaluation of our nicotinic ligands for behavioral effects relevant to psychiatric diseases, we used SmartCube®, an automated system in which mouse behavior is captured by digital video using novel, proprietary hardware that presents multiple challenges in a single test session and is analyzed with computer algorithms. Digital videos of the subjects are processed with computer vision algorithms to extract more than 1400 dependent measures including frequency and duration of behavioral states such as grooming, rearing, etc., and many other features obtained during the test session. Using machine learning techniques chosen to best separate pharmacological effects of reference compounds, the behavioral signatures of the mutant mice are then assessed quantitatively.
The most dominant of the features collected that define the drug class signature are identified and ranked using complex proprietary bioinformatics algorithms. The outcome of a SmartCube® run is a set of more than 1400 features (behavioral parameters) that can be used for various analyses. Many of these features are correlated (e.g., rearing counts and supported rearing counts). Therefore, we form statistically independent combinations of the original features (further referred to as decorrelated features) that discriminate between the groups more effectively. Next, we apply a proprietary feature ranking algorithm to score each feature discrimination power to weight each feature change by its relevance. The data obtained in this way are used to define drug signatures for known reference compounds and to establish therapeutic class signatures against which a test sample can be compared. The neuropharmacological effects of a test compound can be predicted by similarity to major classes of compounds, such as antipsychotics, anxiolytics, and antidepressants (Roberds et al. [2011]).
Mice are taken in their home cage to the SmartCube® suite of experimental rooms where they remain until they are placed in the apparatus for a single testing session. A standard SmartCube® protocol runs for a single session (∼45 min). After the session mice are group-housed again and brought back to the colony room. Any abnormal behavior is noted. […] At least 12 mice were used in each treatment group.

The next data set concerns the target α3β4 nAChR. The note with it: Figure 1, cited from earlier work.
The next data set has as its target α4β2 nAChR. The note with it: Figure 1, cited from earlier work.
In another data set the test system is mice. The note with it: ref Mineur et al. [2009]; cited from earlier work.
The next data set addresses T1, human α3β4*-nAChR (Homo sapiens, UniProt P30926+P32297).
T1 construct: SH-SY5Y naturally expresses autonomic α3β4*-nAChRs; endogenous in cells; host or cells: SH-SY5Y human neuroblastoma cells
In words: 86Rb+ ion efflux assay, SH-SY5Y cells. The format is cell-based. Particulars: 86Rb+ efflux. The text has this: (§1) Cell lines naturally or heterologously expressing specific, functional, human nAChR subtypes were used. The human clonal cell line TE671/RD naturally expresses human muscle-type α1*-nAChRs, containing α1, β1, γ, and δ subunits, with function detectable using ^86Rb^+ efflux assays. […] These cells heterologously express human nAChR chimeric (α6/3) subunits (wherein the extracellular, N-terminal, ligand-binding domain of the human nAChR α6 subunit replaces that domain in the nAChR α3 subunit) along with human β2 and β3 subunits. […] Cells were passaged once a week by splitting just-confluent cultures 1/300 (TE671/RD), 1/10 (SH-SY5Y), or 1/40 (transfected SH-EP1) in serum-supplemented medium to maintain log-phase growth.
(§2) One newer modification on these techniques involves low temperature incubation before assays to increase the surface expression of high sensitivity (HS) relative to low sensitivity (LS) α4β2 nAChRs and to enhance surface expression of (α6/3)β2β3-nAChRs. […] In brief, this allows us to determine efficacies of test compounds at LS and HS α4β2 nAChRs, respectively, as the ordinate values of the linear regressions at abscissa values of 0% and 100% of sazetidine-A efficacy.
(§3) Results are normalized to responses to a fully efficacious concentration of carbamylcholine (see Materials and Methods for details). […]

Data set [1] relates to BALB/cJ and C57BL/6J mice. Particulars: 28 days oral administration; ref Vieyra-Reyes et al. [2008]; cited from earlier work.
Data set [2] relates to male 129SvJ;C57BL/6J F1 hybrid mice. More on the design: method as in Turner et al. ([2010]). Particulars: chronic treatment; ref Turner et al. ([2010]); cited from earlier work.
The next data set addresses T2, human α4β2-nAChR (Homo sapiens, UniProt P17787+P43681).
T2 construct: expressed in transfected cells; host or cells: SH-EP1 human epithelial cells (SH-EP1-hα4β2)
In words: 86Rb+ ion efflux assay, SH-EP1-hα4β2 cells. The format is cell-based. The note with it: normalized to a full antagonist.
Source text: as §1, §2, §3

The target in data set [3] is T3, HS (high sensitivity) α4β2-nAChRs (Homo sapiens, UniProt P17787+P43681).
T3 construct: expressed in transfected cells; host or cells: SH-EP1 human epithelial cells (SH-EP1-hα4β2)
T3 sequence (P43681 29-627 limits assumed): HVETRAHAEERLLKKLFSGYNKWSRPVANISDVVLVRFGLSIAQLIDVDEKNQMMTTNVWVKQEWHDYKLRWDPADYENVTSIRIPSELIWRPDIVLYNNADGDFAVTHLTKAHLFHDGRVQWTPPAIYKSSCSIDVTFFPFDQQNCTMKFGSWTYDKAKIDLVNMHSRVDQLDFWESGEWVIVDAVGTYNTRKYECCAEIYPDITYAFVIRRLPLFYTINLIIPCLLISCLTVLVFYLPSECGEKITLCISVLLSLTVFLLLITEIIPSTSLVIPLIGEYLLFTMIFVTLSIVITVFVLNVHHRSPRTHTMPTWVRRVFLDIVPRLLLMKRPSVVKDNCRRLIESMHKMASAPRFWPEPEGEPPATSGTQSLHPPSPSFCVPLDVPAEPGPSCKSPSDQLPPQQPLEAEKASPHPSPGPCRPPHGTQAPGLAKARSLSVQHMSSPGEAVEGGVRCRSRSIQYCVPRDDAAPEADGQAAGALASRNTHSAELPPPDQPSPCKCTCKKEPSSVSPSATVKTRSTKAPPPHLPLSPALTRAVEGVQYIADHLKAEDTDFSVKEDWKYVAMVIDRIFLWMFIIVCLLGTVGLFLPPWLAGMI
T3 sequence (P17787 26-502): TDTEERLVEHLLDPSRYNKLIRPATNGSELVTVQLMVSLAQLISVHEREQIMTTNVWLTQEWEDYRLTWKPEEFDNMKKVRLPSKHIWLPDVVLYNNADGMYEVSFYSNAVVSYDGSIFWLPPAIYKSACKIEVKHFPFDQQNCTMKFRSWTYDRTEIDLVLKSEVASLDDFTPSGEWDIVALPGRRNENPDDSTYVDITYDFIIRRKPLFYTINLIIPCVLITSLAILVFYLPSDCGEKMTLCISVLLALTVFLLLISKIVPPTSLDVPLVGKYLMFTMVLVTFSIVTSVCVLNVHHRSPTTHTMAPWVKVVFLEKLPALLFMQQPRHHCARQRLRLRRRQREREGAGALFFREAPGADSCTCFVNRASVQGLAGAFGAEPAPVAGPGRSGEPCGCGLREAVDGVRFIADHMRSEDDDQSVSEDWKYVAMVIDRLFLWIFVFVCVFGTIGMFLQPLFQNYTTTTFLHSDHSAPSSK
The experiment in a line: 86Rb+ ion efflux assay, HS α4β2 efficacy by regression on sazetidine-A efficacy. Particulars: relative to carbamylcholine. The format is cell-based.
Source text: as §1, §2, §3

Data set [4] concerns the target T4, LS (low sensitivity) α4β2-nAChRs (Homo sapiens, UniProt P17787+P43681).
T4 construct: expressed in transfected cells; host or cells: SH-EP1 human epithelial cells (SH-EP1-hα4β2)
The experiment in a line: 86Rb+ ion efflux assay, LS α4β2 efficacy by regression on sazetidine-A efficacy. The format is cell-based. The note with it: relative to carbamylcholine.
Source text: as §1, §2, §3

A further data set concerns the target T5, human (α6/3)β2β3-nAChR (Homo sapiens, UniProt P17787+P32297+Q15825).
T5 construct: expressed in transfected cells; host or cells: SH-EP1 human epithelial cells (SH-EP1-h(α6/3)β2β3)
The experiment in a line: 86Rb+ ion efflux assay, SH-EP1-h(α6/3)β2β3 cells. The format is cell-based.
Source text: as §1, §2
Results are normalized to responses to a fully efficacious concentration of carbamylcholine (see Materials and Methods for details). […] The ordinate intercepts of the linear regressions at a sazetidine-A efficacy (abscissa) of 0% represent the efficacies at LS α4β2-nAChRs, while the ordinate intercepts at a sazetidine-A efficacy of 100% represent the efficacies at HS α4β2-nAChRs.

Another data set has as its target α4β4 nAChR. Particulars: ref Rollema et al. [2010]; cited from earlier work.
In another data set the target is α7 nAChR. Particulars: ref Rollema et al. [2010]; read-out: Ki α7; cited from earlier work.
For a further data set, the system named is α4β2*-nAChR. More on the design: method as in Weber et al. [2013]. The note with it: estimate at free concentration in brain; ref Weber et al. [2013]; cited from earlier work.

“Also recorded” adds a separate entry of the source. Like-named read-outs stand apart in the source and are kept apart here.

T5 sequence (Q15825+P32297 fused with the stated changes): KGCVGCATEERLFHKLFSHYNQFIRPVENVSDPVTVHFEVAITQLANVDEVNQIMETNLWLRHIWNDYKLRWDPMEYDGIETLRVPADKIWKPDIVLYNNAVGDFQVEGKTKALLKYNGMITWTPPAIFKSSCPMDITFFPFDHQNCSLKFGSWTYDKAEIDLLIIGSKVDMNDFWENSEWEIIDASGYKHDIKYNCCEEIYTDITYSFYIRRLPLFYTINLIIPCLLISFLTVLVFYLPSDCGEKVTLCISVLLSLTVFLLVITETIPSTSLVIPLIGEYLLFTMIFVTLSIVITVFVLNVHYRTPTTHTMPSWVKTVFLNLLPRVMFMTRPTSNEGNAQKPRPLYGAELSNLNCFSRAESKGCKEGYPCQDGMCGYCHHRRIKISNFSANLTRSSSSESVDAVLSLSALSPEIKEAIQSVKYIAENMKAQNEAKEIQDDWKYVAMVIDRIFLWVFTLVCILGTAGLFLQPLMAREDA
T5 sequence (P17787 26-502): as the sequence (P17787 26-502) above
T5 sequence (Q05901 25-458 partner limits assumed): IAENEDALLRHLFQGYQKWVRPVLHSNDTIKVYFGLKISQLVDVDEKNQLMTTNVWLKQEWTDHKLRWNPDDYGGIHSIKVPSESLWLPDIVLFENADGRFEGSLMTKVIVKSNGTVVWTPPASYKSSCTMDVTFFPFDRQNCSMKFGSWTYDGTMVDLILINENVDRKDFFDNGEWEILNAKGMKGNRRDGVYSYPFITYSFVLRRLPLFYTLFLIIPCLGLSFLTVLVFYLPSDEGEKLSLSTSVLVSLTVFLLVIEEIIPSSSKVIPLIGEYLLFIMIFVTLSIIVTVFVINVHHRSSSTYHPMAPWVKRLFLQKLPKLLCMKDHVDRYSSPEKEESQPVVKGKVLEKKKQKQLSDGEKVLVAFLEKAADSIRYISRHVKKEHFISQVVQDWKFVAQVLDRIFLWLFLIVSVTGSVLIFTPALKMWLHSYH
T1 sequence (P32297 32-505): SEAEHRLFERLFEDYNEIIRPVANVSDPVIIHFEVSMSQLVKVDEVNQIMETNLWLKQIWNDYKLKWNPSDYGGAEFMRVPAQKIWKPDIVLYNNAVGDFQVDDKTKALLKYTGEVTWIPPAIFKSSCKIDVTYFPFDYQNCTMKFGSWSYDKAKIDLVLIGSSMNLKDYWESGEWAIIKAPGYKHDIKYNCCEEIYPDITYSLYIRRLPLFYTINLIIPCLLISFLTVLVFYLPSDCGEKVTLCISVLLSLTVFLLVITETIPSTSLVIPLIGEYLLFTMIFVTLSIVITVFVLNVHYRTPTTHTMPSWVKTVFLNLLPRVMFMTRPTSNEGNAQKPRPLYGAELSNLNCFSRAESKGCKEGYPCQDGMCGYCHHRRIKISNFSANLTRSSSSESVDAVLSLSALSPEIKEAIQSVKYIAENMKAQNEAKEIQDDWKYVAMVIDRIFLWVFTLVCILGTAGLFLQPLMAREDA
T1 sequence (P30926 22-498): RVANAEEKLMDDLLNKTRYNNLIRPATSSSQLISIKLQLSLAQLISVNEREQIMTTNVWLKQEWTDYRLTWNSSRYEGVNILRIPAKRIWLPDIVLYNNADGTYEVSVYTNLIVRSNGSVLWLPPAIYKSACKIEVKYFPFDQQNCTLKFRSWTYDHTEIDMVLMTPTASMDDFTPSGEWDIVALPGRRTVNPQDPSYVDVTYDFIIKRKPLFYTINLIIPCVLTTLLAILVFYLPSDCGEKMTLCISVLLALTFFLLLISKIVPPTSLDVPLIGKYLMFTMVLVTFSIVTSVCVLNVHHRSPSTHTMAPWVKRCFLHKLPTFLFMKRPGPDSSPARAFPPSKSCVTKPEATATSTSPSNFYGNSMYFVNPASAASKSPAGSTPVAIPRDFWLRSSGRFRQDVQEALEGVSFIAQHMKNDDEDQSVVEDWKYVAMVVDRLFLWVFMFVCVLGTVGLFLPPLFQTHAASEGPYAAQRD
T2 sequence (P43681 29-627 limits assumed): as the sequence (P43681 29-627 limits assumed) above
T2 sequence (P17787 26-502): as the sequence (P17787 26-502) above
T4 sequence (P43681 29-627 limits assumed): as the sequence (P43681 29-627 limits assumed) above
T4 sequence (P17787 26-502): as the sequence (P17787 26-502) above

For orientation: Ki means the equilibrium dissociation constant of an inhibitor or competing ligand from its target. Take `O=c1c(-c2ccccn2)ccc2n1CC1CNCC2C1` (stereo not shown) [3-(2-pyridyl)cytisine]: the Ki was 0.00091 µM on α4β2* nAChR (ref Mineur et al. ([2009])), 1.1 µM at α7* nAChR (ref Mineur et al. ([2009])) and 0.119 µM on α3β4* nAChR. In the data set with LS and HS α4β2-nAChR, the “intrinsic efficacy at both LS and HS receptors” value was “no more than 10%”. Also, the “latency to eat in NSF” value in the data set on C57BL/6J mice was “decreased the latency to eat”. Further, the “dose found effective in the NSF test” value with C57BL/6J mice (lower dose only (0.3 vs. 0.6 mg/kg)) is 0.3 mg/kg.

For `O=c1cccc2n1C[C@@H]1CNC[C@H]2C1` [(-)-cytisine], the “SmartCube antidepressant (green) component” value in the data set with Male C57 BL6 mice (1.0 mg/kg, i.p.) is reported as “potential antidepressive-like behavior; also recorded: most pronounced”. Moreover, the SmartCube side effects entry with Male C57 BL6 mice (0.5 and 1.0 mg/kg, i.p.) is “Minimal side effects; also recorded: no obvious side effects”. Further, in the data set on Male C57 BL6 mice (i.p.), the SmartCube behavioral signature result is on record as “robust CNS drug-like signatures”. Besides, the values for the Ki at α3β4 nAChR (ref Rollema et al. ([2010])), at α4β2 nAChR (ref Rollema et al. ([2010])) and at α7* nAChR (ref Rollema et al. ([2010])) were 0.48 µM, 0.002 µM and 5.89 µM, respectively. In addition, in the data set on LS and HS α4β2-nAChR, the “intrinsic efficacy at both LS and HS receptors” value is reported as “no more than 10%”. The “latency to eat in NSF” value in the data set on C57BL/6J mice is listed as “decreased the latency to eat”. In addition, the “dose not tolerated by mice” value with mice is recorded as greater than 1.5 mg/kg.

With `FC(F)(F)c1ccc2c(c1)[C@H]1CNC[C@@H]2C1` [CP-601927], the figures for the Ki at α3β4 nAChR (ref Mineur et al. ([2011])) and at α4β2 nAChR (ref Mineur et al. ([2011])) were 0.102 µM and 0.0012 µM, respectively. Moreover, in the data set on C57BL/6J mice, the “latency to eat in NSF” value is on record as “increased the latency to eat”.

Take `CN1CCC[C@H]1c1cccnc1` [Nicotine]: the “Agonism α3β4*-nAChR Efficacy” value at human α3β4*-nAChR stood at 90%. Besides, in data set [1], the “behavioral changes in NSF” value is “failed to show significant behavioral changes”.

Regarding `OCCCCC#Cc1cncc(OC[C@@H]2CCN2)c1` [Sazetidine-A], the Ki is 10 µM on α3β4 nAChR (ref Xiao et al. ([2006])), 0.0004 µM on α4β2 nAChR (ref Xiao et al. ([2006])) and 0.0009 µM on α4β2* nAChR (ref Xiao et al. ([2006])). In addition, the “time needed to approach food, NIH paradigm” value in data set [2] was “decreased the time needed to approach food”.

As to `c1cnc2cc3c(cc2n1)[C@@H]1CNC[C@H]3C1` [Varenicline], the “Inactivation α4β2-nAChR Efficacy” value at human α4β2-nAChR amounted to 79 ± 3.3%. The “Agonism α4β2-nAChR HS Efficacy” value in data set [3] was 105 ± 4.4%. Further, the “Agonism α4β2-nAChR LS Efficacy” value in data set [4] is listed as 34 ± 2.8%. For the same molecule, the EC50 at human (α6/3)β2β3-nAChR (86Rb+ efflux, read-out: Agonism (α6/3)β2β3-nAChR pEC50 (converted)) was 0.0178 µM. For the same molecule, the “Agonism (α6/3)β2β3-nAChR Efficacy” value at human (α6/3)β2β3-nAChR (normalized to a full agonist) is 17 ± 0.5. Further, at human (α6/3)β2β3-nAChR (normalized to a full antagonist), the “Inactivation (α6/3)β2β3-nAChR Efficacy” value was 74 ± 2.6%. Also, the “Agonism α3β4*-nAChR Efficacy” value at human α3β4*-nAChR was 110%. Moreover, the SmartCube antidepressant effects entry in the data set on Male C57 BL6 mice (1 mg/kg) is “weak antidepressant effects”. For the same molecule, the SmartCube side effects result in the data set with Male C57 BL6 mice (1.0 mg/kg, i.p.) is listed as “Minimal side effects”. Besides, the “SmartCube side effect component, probability” value in the data set with Male C57 BL6 mice (3.0 mg/kg, i.p.) is recorded as “about 30%”. Besides, the SmartCube behavioral signature result with Male C57 BL6 mice (i.p.) is on record as “robust CNS drug-like signatures”. For the same molecule, the Ki is 0.11 µM at α4β4 nAChR and 0.125 µM at α7 nAChR. Moreover, the “latency to eat in NSF” value in the data set on C57BL/6J mice was “did not show any effect”. Also, the “time needed to approach food, NIH paradigm” value in data set [2] is “no effect”.

`CNC1(C)C2CCC(C2)C1(C)C` (stereo not shown) [mecamylamine]: in the data set on α4β2*-nAChR, the “block of α4β2*-nAChR function” value is recorded as roughly 20%.
